Earlier results, collected in US6083980A, “Furanyl, tetracyclic triterpene derivatives with immunosuppressant activity” (Merck & Co., Inc., priority 1998, dated 2000).

Tested on: Kv 1.3 channels (CHO cells transfected with Kv 1.3 channels)
Conditions: stated for the reference blocker used to establish the efflux window

## margatoxin (TIINVKCTSPKQCLPPCKAQFGQSAGAKCMNGKCKCYPH; UniProt P40755 1-39, looked up)
  IC50: 0.1 nM
